# According to patent US4975447A, “6-hydroxyethoxy-2-benzothiazolesulfonamide and topical treatment compositions and method for glaucoma” (University of Iowa Research Foundation, priority 1985, dated 1990):
# Values joined by “and” are separate entries in the source; they are usually repeats but may differ in a detail not shown here. Identical values can stand only once.
# Experiments:
# [1] = system: eyes of rabbits (intraocular pressure); test: Measurement of intraocular pressure ("Salted Rabbit Test"), applanation tonometry, topical 1% suspension; format: in vivo; details: for Ave. change in IOP: 50 μl of 1% suspension q 2 min x 3
# Experimental: ("Salted Rabbit Test") (IOP)
# Rabbits (3-4 months old) were maintained on […] solution in place of drinking water for 3 weeks prior to the determination of IOP because it has been shown that a diet deficient in sodium produces a variable response to this class of drugs. During this 3 week period numerous IOP measurements were made to familiarize the rabbits with this procedure. Baseline IOP measurements were determined by applanation tonometry following topical administration of 3 drops of 1% suspension of analog CAI inhibitor to one eye. The fellow eye received blank vehicle. The observer was masked. Each eye received 1 to 2 drops of proparacaine hydrochloride (0.5%) to anethetize the cornea prior to placing the sensor tip of the tonometer flot on the cornea. IOP measurements were determined over 180 minutes at 20 minute intervals. Changes in IOP were expressed as:
# IOP change=IOP (dosed eye - control eye)t -IOP (dosed eye prior to
# administration - control eye)t=O
# Intraocular pressure (IOP) measurements of 6-hydroxyethoxy-2-benzothiazole sulfonamide in rabbits^a maintained on 3% sodium chloride drinking water following topical instillation.^b,c
# ^b The dose was 50 μl of a 1% suspension q 2 minutes for a total of 3 doses
# [2] = system: lasered eyes of cynomologous monkeys (intraocular pressure); test: Intraocular pressure by pneumatonometry, "DeSantis" test, laser-treated hypertensive right eye (OD); format: in vivo, cynomologous monkey; details: for IOP (individual monkey) / Mean IOP / Mean % change of IOP / Mean % change of IOP versus control: OD (lasered)
# Description: (§1) Because there are certain differences in the eyes of rabbits and man, it was desired to test topical carbonic anhydrase inhibition by the compound of the present invention in a subhuman primate species to confirm the presence of activity by this route. The cynomologous monkey was chosen to represent the species. Because drug effects on intraocular pressure are sometimes less dramatic or not demonstrable using an eye that is normotensive, a test protocol known as the "DeSantis" test was developed. It involves testing the carbonic anhydrase inhibitor effects in eyes made hypertensive by laser treatment. […] After the eye was allowed to recover from the inflammatory process which accompanied the laser treatment, it was used to test the subject drugs.
# (§2) Intraocular pressure (IOP) was determined using an Alcon Pneumatonograph after light corneal anesthesia with proparacaine, before and at 1, 3 and 7 hours after installation of drug to both eyes of each of six cynomologous monkeys per group. […] Animals were trained to sit in restraint chairs and to accept the pressure measurement. Following the measurement, residual anesthetic was washed out with saline.
# (§3) Data for the intraocular pressure studies are presented in the attached tables, where the lasered eyes but not the normal eyes show significant reduction of intraocular pressure compared to control animals.
# (§4) In the tables below "OD" refers to ocular dexter, and "OS" refers to ocular sinnister. This is simply another way of saying right and left eye. The designation number in the lefthand column of each table refers to the designation number assigned to each monkey. "SE" refers to standard error.
# [3] = system: normal eyes of cynomologous monkeys (intraocular pressure); test: Intraocular pressure by pneumatonometry, normal left eye (OS); format: in vivo, cynomologous monkey
# Description: as §1, §2, §3, §4
# [4] = Table 1, 1.0% gel, 0 hr (before drug)
# [5] = Table 2 (six days later), 1.0% gel, 0 hr (before drug)
# [6] = Table 2 (six days later), 1.0% gel, 3 hr
# [7] = Table 2 (six days later), 1.0% gel, 7 hr
# [8] = Table 3, 3.0% gel, 0 hr (before drug)
# [9] = Table 4, 3.0% gel, 0 hr (before drug)
# [10] = Table 4, 3.0% gel, 0 hr (before drug), listed as 6-Hydroxyethoxy-2-benzothiazolesulfomaide
# [11] = Table 4, 3.0% gel, 1 hr, listed as 6-Hydroxyethoxy-2-benzothiazolesulfomaide
# [12] = Table 4, 3.0% gel, 3 hr, listed as 6-Hydroxyethoxy-2-benzothiazolesulfomaide
# [13] = Table 4, 3.0% gel, 7 hr, listed as 6-Hydroxyethoxy-2-benzothiazolesulfomaide
compound,measurement,setting,value
NS(=O)(=O)c1nc2ccc(OCCO)cc2s1 [6-hydroxyethoxy-2-benzothiazolesulfonamide],Ave. change in IOP,"[1]; 20 min after dosing, N=12, probability N.S.",-0.2 mm Hg
same,Ave. change in IOP,"[1]; 40 min after dosing, N=12, probability 0.07",-1.1 mm Hg
same,Ave. change in IOP,"[1]; 60 min after dosing, N=12, probability 0.04",-1.1 mm Hg
same,Ave. change in IOP,"[1]; 80 min after dosing, N=12, probability 0.12",-0.8 mm Hg
same,Ave. change in IOP,"[1]; 100 min after dosing, N=12, probability 0.04",-1.2 mm Hg
same,Ave. change in IOP,"[1]; 120 min after dosing, N=12, probability N.S.",-0.5 mm Hg
same,Ave. change in IOP,"[1]; 140 min after dosing, N=12, probability N.S.",0.2 mm Hg
same,Ave. change in IOP,"[1]; 160 min after dosing, N=12, probability N.S.",0.3 mm Hg
same,Ave. change in IOP,"[1]; 180 min after dosing, N=12, probability N.S.",-0.2 mm Hg
same,effectiveness for topical treatment of glaucoma (in words),[1]; rabbits,an effective treating composition for topical treatment of glaucoma
same,Ave. change in IOP,"[1]; time 0 (baseline), N=12 rabbits",0 mm Hg
same,IOP (individual monkey),[2]; [4],28 mmHg and 46 mmHg and 35 mmHg and 48 mmHg and 38 mmHg and 25 mmHg
same,Mean IOP,[2]; [4],36.7 mmHg
same,IOP (individual monkey),"[2]; Table 1, 1.0% gel, 3 hr",23 mmHg and 36 mmHg and 30 mmHg and 40 mmHg and 34 mmHg
same,Mean % change of IOP,"[2]; Table 1, 1.0% gel, 3 hr",-14.9%
same,Mean IOP,"[2]; Table 1, 1.0% gel, 3 hr",31.0 mmHg
same,IOP (individual monkey),"[2]; Table 1, 1.0% gel, 7 hr",24 mmHg and 46 mmHg and 33 mmHg and 41 mmHg and 34 mmHg and 25 mmHg
same,Mean % change of IOP,"[2]; Table 1, 1.0% gel, 7 hr",-7.5%
same,Mean IOP,"[2]; Table 1, 1.0% gel, 7 hr",33.8 mmHg
same,IOP (individual monkey),[2]; [5],51 mmHg and 52 mmHg and 34 mmHg and 38 mmHg and 28 mmHg and 30 mmHg
same,Mean IOP,[2]; [5],38.8 mmHg
same,IOP (individual monkey),[2]; [6],38 mmHg and 50 mmHg and 29 mmHg and 35 mmHg and 27 mmHg and 26 mmHg
same,Mean % change of IOP,[2]; [6],-11.5%
same,Mean IOP,[2]; [6],34.2 mmHg
same,IOP (individual monkey),[2]; [7],36 mmHg and 48 mmHg and 28 mmHg and 37 mmHg and 24 mmHg and 32 mmHg
same,Mean % change of IOP,[2]; [7],-10.8%
same,Mean IOP,[2]; [7],34.2 mmHg
same,IOP (individual monkey),[2]; [8],50 mmHg and 35 mmHg and 33 mmHg and 55 mmHg and 40 mmHg and 44 mmHg
same,Mean IOP,[2]; [8],42.8 mmHg
same,IOP (individual monkey),"[2]; Table 3, 3.0% gel, 1 hr",45 mmHg and 33 mmHg and 30 mmHg and 52 mmHg and 35 mmHg and 50 mmHg
same,Mean % change of IOP versus control,"[2]; Table 3, 3.0% gel, 1 hr",-4.9%
same,Mean IOP,"[2]; Table 3, 3.0% gel, 1 hr",40.8 mmHg
same,IOP (individual monkey),"[2]; Table 3, 3.0% gel, 3 hr",41 mmHg and 20 mmHg and 30 mmHg and 57 mmHg and 32 mmHg and 45 mmHg
same,Mean % change of IOP versus control,"[2]; Table 3, 3.0% gel, 3 hr",-14.0%
same,Mean IOP,"[2]; Table 3, 3.0% gel, 3 hr",37.5 mmHg
same,IOP (individual monkey),"[2]; Table 3, 3.0% gel, 7 hr",37 mmHg and 23 mmHg and 25 mmHg and 55 mmHg and 33 mmHg and 40 mmHg
same,Mean % change of IOP versus control,"[2]; Table 3, 3.0% gel, 7 hr",-18.5%
same,Mean IOP,"[2]; Table 3, 3.0% gel, 7 hr",35.5 mmHg
same,Mean % change of IOP,[2]; [9],0.0%
same,Mean IOP,[2]; [9],44.7 mmHg
same,IOP (individual monkey),[2]; [10],38 mmHg and 55 mmHg and 37 mmHg and 42 mmHg and 50 mmHg and 46 mmHg
same,Mean % change of IOP,"[2]; Table 4, 3.0% gel, 1 hr",-10.1%
same,Mean IOP,"[2]; Table 4, 3.0% gel, 1 hr",40.3 mmHg
same,IOP (individual monkey),[2]; [11],37 mmHg and 50 mmHg and 32 mmHg and 30 mmHg and 53 mmHg and 40 mmHg
same,Mean % change of IOP,"[2]; Table 4, 3.0% gel, 3 hr",-15.0%
same,Mean IOP,"[2]; Table 4, 3.0% gel, 3 hr",38.3 mmHg
same,IOP (individual monkey),[2]; [12],33 mmHg and 47 mmHg and 29 mmHg and 21 mmHg and 45 mmHg and 55 mmHg
same,Mean % change of IOP,"[2]; Table 4, 3.0% gel, 7 hr",-16.8%
same,Mean IOP,"[2]; Table 4, 3.0% gel, 7 hr",37.2 mmHg
same,IOP (individual monkey),[2]; [13],35 mmHg and 55 mmHg and 28 mmHg and 38 mmHg and 32 mmHg
same,effectiveness for topical treatment of glaucoma (in words),[2]; cynomologous monkeys,an effective treating composition for topical treatment of glaucoma
same,IOP (individual monkey),[3]; [4],33 mmHg and 19 mmHg and 24 mmHg and 23 mmHg and 20 mmHg
same,Mean IOP,[3]; [4],25.3 mmHg
same,IOP (individual monkey),"[3]; Table 1, 1.0% gel, 3 hr",34 mmHg and 20 mmHg and 25 mmHg and 19 mmHg and 38 mmHg
same,Mean % change of IOP,"[3]; Table 1, 1.0% gel, 3 hr",+5.2%
same,Mean IOP,"[3]; Table 1, 1.0% gel, 3 hr",26.8 mmHg
same,IOP (individual monkey),"[3]; Table 1, 1.0% gel, 7 hr",34 mmHg and 25 mmHg and 28 mmHg and 22 mmHg and 19 mmHg and 41 mmHg
same,Mean % change of IOP,"[3]; Table 1, 1.0% gel, 7 hr",+11.1%
same,Mean IOP,"[3]; Table 1, 1.0% gel, 7 hr",28.2 mmHg
same,IOP (individual monkey),[3]; [5],30 mmHg and 22 mmHg and 25 mmHg and 27 mmHg and 24 mmHg
same,Mean IOP,[3]; [5],25.0 mmHg
same,IOP (individual monkey),[3]; [6],29 mmHg and 23 mmHg and 26 mmHg and 27 mmHg and 24 mmHg
same,Mean % change of IOP,[3]; [6],+1.9%
same,Mean IOP,[3]; [6],25.3 mmHg
same,IOP (individual monkey),[3]; [7],27 mmHg and 23 mmHg and 28 mmHg and 24 mmHg
same,Mean % change of IOP,[3]; [7],+5.2%
same,Mean IOP,[3]; [7],26.0 mmHg
same,IOP (individual monkey),[3]; [8],27 mmHg and 24 mmHg and 22 mmHg and 26 mmHg and 30 mmHg
same,Mean IOP,[3]; [8],25.5 mmHg
same,IOP (individual monkey),"[3]; Table 3, 3.0% gel, 1 hr",25 mmHg and 29 mmHg and 24 mmHg and 30 mmHg
same,Mean % change of IOP,"[3]; Table 3, 3.0% gel, 1 hr",+1.7%
same,Mean IOP,"[3]; Table 3, 3.0% gel, 1 hr",26.0 mmHg
same,IOP (individual monkey),"[3]; Table 3, 3.0% gel, 3 hr",23 mmHg and 27 mmHg and 28 mmHg and 25 mmHg
same,Mean % change of IOP,"[3]; Table 3, 3.0% gel, 3 hr",-0.4%
same,Mean IOP,"[3]; Table 3, 3.0% gel, 3 hr",25.2 mmHg
same,IOP (individual monkey),"[3]; Table 3, 3.0% gel, 7 hr",23 mmHg and 25 mmHg and 20 mmHg and 29 mmHg and 26 mmHg
same,Mean % change of IOP,"[3]; Table 3, 3.0% gel, 7 hr",-0.6%
same,Mean IOP,"[3]; Table 3, 3.0% gel, 7 hr",25.3 mmHg
same,Mean % change of IOP,[3]; [9],0.0%
same,Mean IOP,[3]; [9],23.3 mmHg
same,IOP (individual monkey),[3]; [10],24 mmHg and 20 mmHg and 18 mmHg and 30 mmHg and 21 mmHg and 27 mmHg
same,Mean % change of IOP,"[3]; Table 4, 3.0% gel, 1 hr",3.3%
same,Mean IOP,"[3]; Table 4, 3.0% gel, 1 hr",23.8 mmHg
same,IOP (individual monkey),[3]; [11],25 mmHg and 16 mmHg and 23 mmHg and 28 mmHg and 24 mmHg and 27 mmHg
same,Mean % change of IOP,"[3]; Table 4, 3.0% gel, 3 hr",-1.8%
same,Mean IOP,"[3]; Table 4, 3.0% gel, 3 hr",22.7 mmHg
same,IOP (individual monkey),[3]; [12],27 mmHg and 18 mmHg and 20 mmHg and 25 mmHg and 21 mmHg
same,Mean % change of IOP,"[3]; Table 4, 3.0% gel, 7 hr",5.5%
same,Mean IOP,"[3]; Table 4, 3.0% gel, 7 hr",24.3 mmHg
same,IOP (individual monkey),[3]; [13],28 mmHg and 20 mmHg and 23 mmHg and 27 mmHg
